Source: patent publication US9157904B2, “Wnt antagonists and methods of treatment and screening” (OncoMed Pharmaceuticals, Inc., priority 2010, dated 2015)

Legend:
PN4 tumors = test: Flow cytometry for ESA and CD44 on treated PN4 tumors; type: in vivo, NOD/SCID mice; conditions: PN4 tumors harvested day 85, 5 tumors pooled; control antibody 12.7%
Experimental: Control and treated tumors from the OMP-PN4 xenograft study described above were harvested at the end of the study (day 85). The tumors were processed and dissociated into single cells. Single cell suspensions derived from 5 tumors of each treatment group were pooled, and the pooled samples were then incubated on ice for 30 min with antibodies that bind mouse cells selectively (α-mouse CD45-biotin 1:200 dilution and rat α-mouse H2Kd-biotin 1:100 dilution, BioLegend, San Diego, Calif.), followed by addition of streptavidin-labeled magnetic beads (Invitrogen, Carlsbad, Calif.). Mouse cells were removed with the aid of a magnet. For analysis of human cell surface markers, the single tumor cell suspension was stained with anti-ESA (Biomeda, Hayward, Calif.) and anti-CD44 (BD Biosciences, San Jose, Calif.) antibodies which were directly conjugated to fluorochromes. Dead cells were excluded by using the viability dye DAPI. Flow cytometry was performed using a FACS Aria instrument (Becton Dickinson, Franklin Lakes, N.J.). Side scatter and forward scatter profiles were used to eliminate cell clumps.

PN4 pancreatic tumors = test: In vivo limiting dilution assay of treated PN4 tumors; set-up: species or system NOD/SCID mice; conditions: day 75 after injection of 30, 90, 270 cells, control 7 out of 30
From the text: Limiting dilution assays (LDA) can be used to assess the effect of therapeutic agents on solid tumor cancer stem cells and on the tumorigenicity of a tumor comprising the cancer stem cells. Such assays can be used to determine the frequency of cancer stem cells in tumors from animals treated with the FZD8-Fc fusion protein or other agent and to compare that frequency to the frequency of cancer stem cells in tumors from control animals. Control and treated tumors from the PN4 xenograft study described above were harvested at the end of the study (day 85). The tumors were processed and dissociated into single cells. […] The human cells in the suspension were harvested, counted, and stained for cell surface markers and appropriate cell doses (30, 90, and 270 cells) in FACS buffer were mixed in a 1:1 mixture with Matrigel and injected subcutaneously in NOD/SCID mice (10 mice per cell dose per treatment group). […] At the desired time point, the percentage of mice with detectable tumors was determined in all groups injected with FZD8-Fc-treated tumor cells and compared to the percentage of mice with detectable tumors in the controls. For example, the number of mice injected with 125 control antibody-treated tumor cells that have detectable tumors is determined and compared to the number of mice injected with 125 FZD8-Fc treated tumor cells that have detectable tumors. […]

PN21 pancreatic tumors = test: In vivo limiting dilution assay of treated PN21 tumors; set-up: species or system NOD/SCID mice; conditions: day 72, L-Calc
From the text: As described above in Example 3, a limiting dilution assays was used to assess the effect of treatment with FZD8-Fc alone or in combination with gemcitabine on solid tumor cancer stem cells in the PN21 pancreatic tumor model.
Control and treated tumors from the PN21 xenograft study described above were harvested at the end of the study. The tumors were processed and dissociated into single cells. […] The human cells in the suspension were harvested, counted, and stained for cell surface markers and appropriate cell doses (30, 90, and 270 cells) in FACS buffer were mixed in a 1:1 mixture with Matrigel and injected subcutaneously in NOD/SCID mice (10 mice per cell dose per treatment group). […]
At the desired time point, the percentage of mice with detectable tumors was determined in all groups injected with treated tumor cells and compared to the percentage of mice with detectable tumors in control treated cells. For example, the number of mice injected with 125 control antibody-treated tumor cells that have detectable tumors is determined and compared to the number of mice injected with 125 FZD8-Fc treated tumor cells that have detectable tumors.
On day 72 after injection of the cells, tumor take rates in the various groups were determined and the cancer stem cell frequency was calculated using L-Calc™ software (StemCell Technologies Inc.; www.stemcell.com).

Nc1ccn([C@@H]2O[C@H](CO)[C@@H](O)C2(F)F)c(=O)n1 [gemcitabine, reference compound]
bulk tumor population expressing both ESA and CD44 at high levels (double positive population) (PN4 tumors): 13.9% | tumor take rate (PN4 pancreatic tumors): 7 mice out of 30 mice | cancer stem cell frequency (PN21 pancreatic tumors): slightly increased
